These results are taken from patent US12655114B2, “Ionizable lipid compounds and lipid nanoparticle compositions” (SunVax mRNA Therapeutics Inc., priority 2022, dated 2026).

The structures appear in SMILES notation.

This assay deals with 293T cells. The experiment in a line: SamRNA-LUC transfection efficiency of LNPs by plate reader (luminescence). Type of assay: cell-based. Conditions: LNP-SamRNA-Luc formulated with the lipid, incubated overnight, FIG. 11. The procedure: The LNPs containing SamRNA-GFP (or SamRNA-LUC, 100 ng/well) were added into 96-well plate which was pre-seeded with 293T, C2C12 or MC38 cells. After 24 hours incubation at 37° C. and 5% CO2, the luciferase SamRNA transfection efficiency was measured by plate reader (Perkin Elmer Envision 2104). The GFP SamRNA transfection efficiency was measured by flow cytometry (BD FACSymphony™ A5 SE Cell Analyzer).
Regarding `CCCCCCCCCCCCC(=O)N(C(CCCCCCC)CCCCCCC)C(C(=O)NCC(=O)OCC)C1CCN(CC)CC1` (centres unmarked) [P1C1, Ethyl (2-(1-ethylpiperidin-4-yl)-2-(N-(pentadecan-8-yl)tridecanamido)acetyl)glycinate], the “bioluminescence signals compared with MC3-LNP-SamRNA-Luc” value is “stronger bioluminescence signals than MC3-LNP-SamRNA-Luc”.
Take `CCCCCCCCCCCCCC(=O)N(CC(CCCCCCCC)CCCCCCCCCC)C(C(=O)NCC(=O)OCC)C1CCN(CC)CC1` (centres unmarked) [P1D4, Ethyl (2-(1-ethylpiperidin-4-yl)-2-(N-(2-octyldodecyl)tetradecanamido)acetyl)glycinate]: the “bioluminescence signals compared with MC3-LNP-SamRNA-Luc” value is reported as “stronger bioluminescence signals than MC3-LNP-SamRNA-Luc”.
As for `CCCCCCCCCCCCCCCC(=O)N(C(CCCCCCCC)CCCCCCCC)C(C(=O)NC1=CCCCC1)C1CCN(CC)CC1` (centres unmarked) [P6A2, N-(2-(cyclohex-1-en-1-ylamino)-1-(1-ethylpiperidin-4-yl)-2-oxoethyl)-N-(heptadecan-9-yl)palmitamide], the “bioluminescence signals compared with MC3-LNP-SamRNA-Luc” value was “stronger bioluminescence signals than MC3-LNP-SamRNA-Luc”.
Take `CCCCCCCCC(CCCCCCCC)N(C(=O)CCCCCCC)C(C(=O)NCCCC)C1CCN(CC)CC1` (centres unmarked) [P14A2, N-(2-(butylamino)-1-(1-ethylpiperidin-4-yl)-2-oxoethyl)-N-(heptadecan-9-yl)octanamide]: the “bioluminescence signals compared with MC3-LNP-SamRNA-Luc” value is on record as “stronger bioluminescence signals than MC3-LNP-SamRNA-Luc”.
The same measure for `CCCCCCCCCCC(=O)N(C(CCCCCCC)CCCCCCC)C(C(=O)NCCCC)C1CCN(CC)CC1` (centres unmarked) [P16B1, N-(2-(butylamino)-1-(1-ethylpiperidin-4-yl)-2-oxoethyl)-N-(pentadecan-8-yl)undecanamide]: “stronger bioluminescence signals than MC3-LNP-SamRNA-Luc”.
With `CCCCCCCCCCCCCC(=O)N(CC(CCCCCCCC)CCCCCCCCCC)C(C(=O)NC1CCCCC1)C1CCN(CC)CC1` (centres unmarked) [P26D4, N-(2-(cyclohexylamino)-1-(1-ethylpiperidin-4-yl)-2-oxoethyl)-N-(2-octyldodecyl) tetradecanamide], the “bioluminescence signals compared with MC3-LNP-SamRNA-Luc” value is “stronger bioluminescence signals than MC3-LNP-SamRNA-Luc”.
On to `CCCCCCCCCCCCCCCC(=O)N(C(CCCCCCC)CCCCCCC)C(C(=O)NC1CCCCC1)C1CCN(CC)CC1` (centres unmarked) [P30A1, N-(2-(cyclohexylamino)-1-(1-ethylpiperidin-4-yl)-2-oxoethyl)-N-(pentadecan-8-yl)palmitamide], for which the “bioluminescence signals compared with MC3-LNP-SamRNA-Luc” value was “stronger bioluminescence signals than MC3-LNP-SamRNA-Luc”.
The result for `CCCCCCCCCCCCCCCCC(=O)N(C(CCCCCCC)CCCCCCC)C(CC1CCN(C)CC1)C(=O)NC1CCCCC1` (centres unmarked) [P30B7, N-(1-(cyclohexylamino)-3-(1-methylpiperidin-4-yl)-1-oxopropan-2-yl)-N-(pentadecan-8-yl)heptadecanamide] reads “stronger bioluminescence signals than MC3-LNP-SamRNA-Luc”; that for `CCCCCCCCCCCCCCCCCC(=O)N(C(CCCCCCC)CCCCCCC)C(CC1CCN(C)CC1)C(=O)NC1CCCCC1` (centres unmarked) [P30C7, N-(1-(cyclohexylamino)-3-(1-methylpiperidin-4-yl)-1-oxopropan-2-yl)-N-(pentadecan-8-yl)stearamide], “stronger bioluminescence signals than MC3-LNP-SamRNA-Luc”; that for `CCCCCCCCCCCCCC(=O)N(C(CCCCCCC)CCCCCCC)C(C(=O)NC1CCCCCC1)C1CCN(CC)CC1` (centres unmarked) [P38D1, N-(2-(cycloheptylamino)-1-(1-ethylpiperidin-4-yl)-2-oxoethyl)-N-(pentadecan-8-yl)tetradecanamide], “stronger bioluminescence signals than MC3-LNP-SamRNA-Luc”.
The result for `CCCCCCCCCCCCCC(=O)N(C(CCCCCCC)CCCCCCC)C(CC1CCN(C)CC1)C(=O)NC1CCCCCC1` (centres unmarked) [P38D7, N-(1-(cycloheptylamino)-3-(1-methylpiperidin-4-yl)-1-oxopropan-2-yl)-N-(pentadecan-8-yl)tetradecanamide] reads “stronger bioluminescence signals than MC3-LNP-SamRNA-Luc”; that for `CCCCCCCCCCCCCC(=O)N(C(CCCCCCCC)CCCCCCCC)C(CC1CCN(C)CC1)C(=O)NC1CCCCCC1` (centres unmarked) [P38D8, N-(1-(cycloheptylamino)-3-(1-methylpiperidin-4-yl)-1-oxopropan-2-yl)-N-(heptadecan-9-yl)tetradecanamide], “stronger bioluminescence signals than MC3-LNP-SamRNA-Luc”.
Turning to `CCCCCCCCCCC(=O)N(CC(CCCCCCCC)CCCCCCCCCC)C(CC1CCN(C)CC1)C(=O)NC1CCCCCC1` (centres unmarked) [P40B10, N-(1-(cycloheptylamino)-3-(1-methylpiperidin-4-yl)-1-oxopropan-2-yl)-N-(2-octyldodecyl)undecanamide], the “bioluminescence signals compared with MC3-LNP-SamRNA-Luc” value is “stronger bioluminescence signals than MC3-LNP-SamRNA-Luc”.
On to `CCCCCCCCCCCC(=O)N(CC(CCCCCCCC)CCCCCCCCCC)C(CC1CCN(C)CC1)C(=O)NC1CCCCCC1` (centres unmarked) [P40C10, N-(1-(cycloheptylamino)-3-(1-methylpiperidin-4-yl)-1-oxopropan-2-yl)-N-(2-octyldodecyl)dodecanamide], for which the “bioluminescence signals compared with MC3-LNP-SamRNA-Luc” value is reported as “stronger bioluminescence signals than MC3-LNP-SamRNA-Luc”.
The result for `CCCCCCCCCCCC(=O)N(C(CCCCCCCCCCC)CCCCCCCCCCC)C(CC1CCN(C)CC1)C(=O)NC1CCCCCC1` (centres unmarked) [P40C11, N-(1-(cycloheptylamino)-3-(1-methylpiperidin-4-yl)-1-oxopropan-2-yl)-N-(tricosan-12-yl)dodecanamide] reads “stronger bioluminescence signals than MC3-LNP-SamRNA-Luc”; that for `CCCCCCCCCCCCCCC(=O)N(C(CCCCCCC)CCCCCCC)C(CC1CCN(C)CC1)C(=O)NC1CCCCCC1` (centres unmarked) [P40D7, N-(1-(cycloheptylamino)-3-(1-methylpiperidin-4-yl)-1-oxopropan-2-yl)-N-(pentadecan-8-yl)pentadecanamide], “stronger bioluminescence signals than MC3-LNP-SamRNA-Luc”; that for `CCCCCCCCCCCCC(=O)N(CC(CCCCCCCCCC)CCCCCCCCCCCC)C(CC1CCN(C)CC1)C(=O)NC(C)(C)C` (centres unmarked) [P51C12, N-(1-(tert-butylamino)-3-(1-methylpiperidin-4-yl)-1-oxopropan-2-yl)-N-(2-decyltetradecyl)tridecanamide], “stronger bioluminescence signals than MC3-LNP-SamRNA-Luc”.
The result for `CCCCCCCCCCCC(CCCCCCCCCCC)N(C(=O)CCCCCCCCC)C(C(=O)NC(C)(C)C)C1CCN(CC)CC1` (centres unmarked) [P53A5, N-(2-(tert-butylamino)-1-(1-ethylpiperidin-4-yl)-2-oxoethyl)-N-(tricosan-12-yl)decanamide] reads “stronger bioluminescence signals than MC3-LNP-SamRNA-Luc”; that for `CCCCCCCCCCCCC(CCCCCCCCCC)CN(C(=O)CCCCCCCCC)C(C(=O)NC(C)(C)C)C1CCN(CC)CC1` (centres unmarked) [P53A6, N-(2-(tert-butylamino)-1-(1-ethylpiperidin-4-yl)-2-oxoethyl)-N-(2-decyltetradecyl)decanamide], “stronger bioluminescence signals than MC3-LNP-SamRNA-Luc”; that for `CCCCCCCCCCCCC(CCCCCCCCCC)CN(C(=O)CCCCCCCCCC)C(C(=O)NC12CC3CC(CC(C3)C1)C2)C1CCN(CC)CC1` (centres unmarked) [P54B6, N-(2-(((1s,3s)-adamantan-1-yl)amino)-1-(1-ethylpiperidin-4-yl)-2-oxoethyl)-N-(2-decyltetradecyl)undecanamide], “stronger bioluminescence signals than MC3-LNP-SamRNA-Luc”.
